One test deals with T1, IL-1R (Rattus norvegicus, UniProt Q02955).
T1 construct: Thymocytes freshly isolated from rat thymus; endogenous in cells; host or cells: freshly isolated rat thymocytes
T1 sequence (Q02955 20-576): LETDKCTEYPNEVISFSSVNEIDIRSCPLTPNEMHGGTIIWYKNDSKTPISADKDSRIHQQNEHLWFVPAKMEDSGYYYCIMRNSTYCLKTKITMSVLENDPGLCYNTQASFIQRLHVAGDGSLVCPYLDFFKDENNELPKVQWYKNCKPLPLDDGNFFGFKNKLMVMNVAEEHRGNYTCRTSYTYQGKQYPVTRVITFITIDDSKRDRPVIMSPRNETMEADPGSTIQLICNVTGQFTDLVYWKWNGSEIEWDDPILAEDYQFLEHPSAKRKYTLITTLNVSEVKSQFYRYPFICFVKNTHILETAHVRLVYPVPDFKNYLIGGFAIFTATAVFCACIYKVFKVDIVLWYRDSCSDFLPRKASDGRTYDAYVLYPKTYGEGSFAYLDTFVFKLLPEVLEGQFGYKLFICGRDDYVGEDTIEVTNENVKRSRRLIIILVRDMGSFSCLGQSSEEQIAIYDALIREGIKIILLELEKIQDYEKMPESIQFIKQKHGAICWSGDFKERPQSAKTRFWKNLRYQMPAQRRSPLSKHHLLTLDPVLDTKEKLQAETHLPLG
T1 sequence (Q63621 21-570 partner): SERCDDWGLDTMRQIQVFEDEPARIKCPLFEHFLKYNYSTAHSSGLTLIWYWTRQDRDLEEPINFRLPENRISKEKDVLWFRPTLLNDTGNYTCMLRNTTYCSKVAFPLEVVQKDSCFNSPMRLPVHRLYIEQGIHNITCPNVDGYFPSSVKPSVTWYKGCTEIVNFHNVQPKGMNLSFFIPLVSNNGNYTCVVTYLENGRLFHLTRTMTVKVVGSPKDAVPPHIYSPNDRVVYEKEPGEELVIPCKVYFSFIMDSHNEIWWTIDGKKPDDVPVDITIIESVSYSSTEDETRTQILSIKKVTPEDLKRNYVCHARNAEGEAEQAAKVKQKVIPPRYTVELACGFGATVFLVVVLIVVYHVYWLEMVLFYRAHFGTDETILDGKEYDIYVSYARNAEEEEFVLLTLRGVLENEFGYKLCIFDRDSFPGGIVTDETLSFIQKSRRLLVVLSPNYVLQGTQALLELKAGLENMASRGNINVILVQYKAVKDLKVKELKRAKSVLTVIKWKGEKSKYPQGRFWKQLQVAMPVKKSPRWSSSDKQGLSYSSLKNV
The experiment in a line: Cross-linking and radioligand binding of I125-API-101.10 on thymocytes. The text has this:
Thymocytes freshly isolated from rat thymus were resuspended at a concentration of 10^7 cell/ml in PBS (phosphate buffered saline) buffer pH 8.0 (reaction buffer) and washed three times with ice-cold reaction buffer. The reaction mixture for each sample contained: 10^6 cells and 10^7 cpm of 125API-101.10. One sample also contained […] of cold API-101.10 peptide. In the negative control HEK-293 cells containing a negligible amount of IL-1R were used. Each sample volume was then raised to 250 μl with reaction buffer. Samples were incubated at room temperature and/or 37° for 45 minutes to allow peptide binding. The non-permeable cross-linker BS3 (Bis(sulfosuccinimidyl)suberate) was then added to a final concentration of 2.5 mM and samples were incubated at 4° C. for 30 minutes to minimize active internalization of BS3 (11.4 Å) (Pierce) (Partis, J. Prot. Chem. 293:263-277, 1983; Cox et al., J. Immunol. 145:1719-1726, 1990; and Knoller et al., J. Biol. Chem. 266:2795-2804, 1991). The reaction was quenched with 20 mM TRIS pH 7.5 for 15 minutes at room temperature. Cells were centrifuged at 4000 rpm for 10 minutes, lysed for 30 minutes on ice with 150 μl of RIPA buffer (50 mM Tris HCl pH7.4; 150 mM NaCl; 1 mM EDTA; 2 mM Na3VO4; 1 mM NaF; 1% NP-40; 0.25% Nadeoxycholate). […] Radioactivity was determined is every cell lysate with a Packard CobraII autogamma counter.

The next test deals with IL-1R/IL-1RacP. The experiment in a line: IL-1-induced PGE2 synthesis in endothelial cells. In kind it is cell-based, porcine. As for the experimental part:
Efficiencies and inhibitory activities of the mutated peptides were determined by measuring the inhibition of IL-1-induced PGE2 synthesis. […] All peptides were tested at concentration 10^−6M.
The arginine of API-101.10 (SEQ ID NO: 10) was replaced by citrulline—to change from a guanidine to a urea group near the N-terminal. Other mutations (e.g. E to Q in API-101.102 and API-101.103) and a truncated peptide at the C-terminal (API-101.108) were also performed to improve the potency and the efficacy of the peptides. Measurement of PGE2 was performed with piglet brain microvessel endothelial cells and WI-38 human fibroblasts. Some of the mutations were advantageous and gave major increases in potency.
IL-1-induced PGE2 synthesis assay on endothelial cells was used as a screening assay for the peptidomimetics.

Test [1] concerns PMA-induced ear skin inflammation. Put plainly: PMA-induced skin dermatitis of rat ears. As to conditions: topical. It is filed as in vivo. The method, then: To verify the efficacy of a topical application of API-101.10 in a skin model of inflammation, 10 μl of 0.05% (in acetone) of the irritating agent PMA was applied on ears of 5 weeks old CD-1 male […] (Charles River) to induce contact dermatitis. The right ear received the vehicle only and left ear received the peptide or IL-1Ra analog Kineret® (Amgen). Ten μl of a final concentration of 10^−5M peptide diluted in PEG was applied 45 minutes and 4 hours after the induction of the inflammation with PMA. The commercial analog of IL-1R antagonist (IL-Ra), Kineret® was applied as a positive control at a concentration of 50 μg/10 μl of PEG. The drug was applied with a pipet tip adapted for the viscosity of the solution. Eighteen hours after the peptide treatment animals were sacrificed and ears were cut, weighed and their […] was measured with a caliper. Ear tumefaction (%) was determined: […] where a=thickness of left treated ear and b=thickness of right control ear.

Consider one compound from patent publication US20110144014A1, “CYTOKINE RECEPTOR MODULATORS AND USES THEREOF” (CENTRE HOSPITALIER UNIVERSITAIRE SAINTE-JUSTINE, priority 2005, published 2011).

Where a SMILES comes first, the peptide text is derived from it. [ ]: non-standard residue; d: D form.

For orientation: IC50 means the point on the concentration scale where inhibition reaches its midpoint.

Regarding `CC(C)C[C@@H](NC(=O)[C@@H](CCC(=O)O)NC(=O)[C@H](NC(=O)[C@H](NC(=O)[C@@H](Cc1ccc(O)cc1)NC(=O)[C@H](N)CCCNC(=N)N)[C@H](C)O)C(C)C)C(=O)N[C@H](C)C(N)=O` [API-101.10, RYTVELA] (H-[dR][dY][dT][dV][dE][dL][dA]-NH2; N-terminus and C-terminus assumed), the “displacement of radioactive IL-1α” value on IL-1R (I125-IL-1α 100 pM, 101.10 500 nM) is reported as “unable to displace”. At IL-1R (cross-linking, autoradiogram), the “displacement of 125I-API-101.10 by non-radioactive peptide” value is listed as “displace almost all”. The same compound displayed an IC50 in the test on IL-1R/IL-1RacP of 1.2 nM. Besides, the “ear weight compared with PMA-induced inflamed ear” value in test [1] (10^−5M in PEG) is recorded as “reduction in weight”. For the same compound, the “prevention of ear tumefaction” value in test [1] (10 μl of 10^−5M in PEG, 45 min and 4 h after PMA) was determined as 50%.
